{
  "source": "patent US10758536B2",
  "about": "“Method for treating shingles with N-methanocarbathymidine (N-MCT)” (priority 2015, dated 2020)",
  "key": {"VZV [1]": {"test_system": "VZV", "assay": "SCID-Hu mouse model of VZV replication, oral dose range", "type": "in vivo, varicella-zoster virus", "settings": "all doses, N-MCT 5-100 mg/kg/day BID; p<0.0001, ANOVA and Dunnett", "description": "SCID-hu mice with human skin xenografts were infected intradermally with VZV and treated orally twice daily with vehicle, PFA (positive control), or N-MCT at 5, 10, 20, 25, 50, or 100 mg/kg/day. Virus spread was measured daily by in vivo bioluminescence imaging (IVIS). […] The results were analyzed for statistical significance by ANOVA and Dunnett's post hoc test of multiple comparisons (GraphPad Prism)."}, "VZV [2]": {"test_system": "VZV", "assay": "Skin organ culture topical Assay 2: delayed treatment", "type": "cell-based, varicella-zoster virus", "description": "(§1) Place 36 mL deionized sterile water into small beaker with stir bar. Slowly waft 900 mg of carbopol (980 NF, Lot # CCONLCC013, Lubrizol Corp) into water, avoiding clumps. Add equal volume N-MCT in 20% hydroxypropyl-β-cyclodextrin (Sigma) at 2× to reach the desired concentration. Add 2 drops NaOH (18% solution) to attain a pH near 5.0. Store at 4° C. The 0.5% cidofovir gel was made in a similar manner except that cidofovir was dissolved in water. The DMSO vehicle was prepared by adding a 2% DMSO solution in water to the carbopol suspension at a 1:1 ratio. Hydroxypropyl-β-cyclodextrin (HPBCD) was prepared by mixing 5.0 g with 20 mL sterile water. Stock solution of N-MCT was prepared by dissolving 90 mg N-MCT in 9 mL 20% HPBCD and sonicating for 1 min.\n(§2) Human fetal skin was purchased from ABR and delivered by overnight courier on wet ice. The tissue was cleaned, disinfected in betadine and 70% ethanol, then cut into pieces approximately 1-cm^2. Each piece was inoculated with VZV-BAC-Luc strain that expresses firefly luciferase. Approximately 3 hours after inoculation, the pieces of skin were placed in NetWells above tissue culture medium and incubated overnight. The next day (Day 1) each piece of skin was soaked in D-luciferin for 45 min, and then scanned in the IVIS-50 instrument to measure Total Flux, which is a correlate of VZV pfu. The drug treatment began on Day 1 or later by spreading an aqueous gel (carbopol) containing N-MCT at concentrations of 0.05, 0.5, or 5% (see Assay 1 in Table 4 below). One group of skin was treated with cidofovir ([…] in carbopol gel) for a positive control. Each group contained 4-6 pieces of skin. The drug was applied daily until Day 5 (or other intervals), and then the skin pieces were scanned by IVIS to determine virus yield. […] The results were analyzed for statistical significance by ANOVA and Dunnett's post hoc test of multiple comparisons (GraphPad Prism).\nThis assay differs from Assay 1 in that the Vehicle was prepared with 10% HPBCD, which is the solvent for the N-MCT. Refer to Assay #2 in Table 4 above. Three groups were treated on Days 1-4 and scanned on Day 5, which is the typical assay protocol. Two groups were treated after a delay of several days, which more closely reflects a clinical scenario of zoster. All treated groups received the same preparation of 0.5% N-MCT in carbopol with 10% HPBCD. VZV yield was reduced in the Vehicle group during the treatment phase, and then rebounded. This was likely due to the effects of HPBCD, which has known antiviral properties. […] In contrast, VZV yield increased until Day 5 in the group that received no treatment until after this scan. The difference between this group and the Vehicle group was notable, since they were expected to be similar."}, "VZV [3]": {"test_system": "VZV", "assay": "Skin organ culture topical Assay 1: dose dependence (carbopol gel)", "type": "cell-based, varicella-zoster virus", "description": "as §1\nA skin organ culture model was used to evaluate N-MCT as a topical treatment for VZV. Human skin explants were inoculated with VZV by scarification and treated daily from 1-4 days post infection with N-MCT (0.05, 0.5, or 5%) or cidofovir (0.5%, positive control) in a carbopol gel.\nas §2"}},
  "data": [
    {"molecule": "O=C(O)P(=O)(O)O", "note": "[PFA, phosphonoformic acid, reference compound]", "values": [
      {"measurement": "VZV yield and growth rates compared to vehicle", "setting": "VZV [1]", "result": "significantly reduced"}
    ]},
    {"molecule": "CC(O)COC[C@H]1O[C@@H]2O[C@H]3[C@H](O)[C@@H](O)[C@@H](O[C@H]4[C@H](O)[C@@H](O)[C@@H](O[C@H]5[C@H](O)[C@@H](O)[C@@H](O[C@H]6[C@H](O)[C@@H](O)[C@@H](O[C@H]7[C@H](O)[C@@H](O)[C@@H](O[C@H]8[C@H](O)[C@@H](O)[C@@H](O[C@H]1[C@H](O)[C@H]2O)O[C@@H]8COCC(C)O)O[C@@H]7COCC(C)O)O[C@@H]6COCC(C)O)O[C@@H]5COCC(C)O)O[C@@H]4COCC(C)O)O[C@@H]3COCC(C)O", "note": "(stereo partly drawn) [hydroxypropyl-β-cyclodextrin]", "values": [
      {"measurement": "antiviral effect on VZV in skin organ culture", "setting": "VZV [2]; 10% in carbopol, no drug", "result": "moderate antiviral effect"}
    ]},
    {"molecule": "Nc1ccn(C[C@@H](CO)OCP(=O)(O)O)c(=O)n1", "note": "[cidofovir, reference compound]", "values": [
      {"measurement": "VZV yield compared to vehicle", "setting": "VZV [3]; N-MCT 0.05, 0.5, 5% or cidofovir in carbopol gel, daily, p<0.0004", "result": "significantly reduced"},
      {"measurement": "VZV replication in skin explants, topical gel", "setting": "VZV [3]; N-MCT 0.05-5%, cidofovir 0.5% in carbopol gel", "result": "prevented VZV replication"},
      {"measurement": "reduction of virus yield compared to the vehicle group", "setting": "VZV [3]; all concentrations, topical carbopol gel, p=0.0004", "result": "approximately 100 fold"},
      {"measurement": "VZV yield, treatment on Days 1-4", "setting": "VZV [2]; 0.5% in carbopol QD 1-4 dpi, during and after treatment", "result": "dramatically reduced"}
    ]}
  ]
}
